Measurements published in patent publication US20240197700A1, “Methods and Compositions for Treating Lysosomal Storage Disorders” (Sanford Health, priority 2021, published 2024).
Entries after “also recorded” stand apart in the source; their conditions may differ.

Columns and labels:
[1] = tested on: palmitoyl-protein thioesterase 1 (PPT1); assay: PPT1 enzyme activity in MEF lysates; type: cell-based, mouse; conditions: wild type, DIV7
Description: Wild type (WT) and mutant cells were treated with vehicle or AF38469 (40 nM). Cells were plated on day 0 and dosed with drug-containing media on DIV3 and DIV5. Cells were lysed, and protein quantification and enzyme activity assay were performed on DIV7. Data was analyzed with GraphPad Prism™. Two-way ANOVA. Mean±S.E.M. Tukey's multiple comparisons test. *p<0.05, **p<0.01, ***p<0.001, ****p<0.0001.

[2] = tested on: Cln3^Δex7/8 mice; assay: Astroglial activation (GFAP) in brain of Cln3^Δex7/8 mice; type: in vivo, mouse
Description: FIG. 22(A-B). Short-term chronic treatment with semaglutide impacts glial activation in Cln3^Δex7/8 mice. Beginning at wean, wild type and Cln3^Δex7/8 mice were treated with vehicle or semaglutide 2.571 μg/mouse, 25.71 μg/mouse) through subcutaneous injections three times a week until sacrifice at 16 weeks. Upon sacrifice, a hemisphere of the brain was sectioned at 50 microns on a vibratome; DAB staining immunohistochemistry was then performed using anti-GFAP (Dako, Z0334; 1:5000), anti-CD68 (AbD Serotec, MCA1957; 1:2000), anti-rabbit biotinylated (Vector Labs, BA-1000 1:1000), and anti-rat (Vector Labs, BA-9400 1:1000). Sections were imaged and analyzed using an Aperio Digital Pathology Slide Scanner (AT2) and associated software. Images were extracted from S1BF of the somatosensory cortex, the CA3 of the hippocampus, and the VPM/VPL of the thalamus, key brain regions for Batten disease pathology. Percent area of immunoreactivity were quantified using a threshold analysis in ImageJ™. Statistical analyses were performed using GraphPad Prism™ (v8.4.3; San Diego, CA). […] Increasing concentrations of semaglutide and corresponding genotypes are shown along the x-axis. Nested one-way ANOVA. Mean±S.E.M. Sidak's multiple comparisons test. Compared to the wild type vehicle treated group #p<0.05, ##p<0.01, ###p<0.001, ####p<0.0001. Compared to mutant vehicle treated group *p<0.05, **p<0.01, ***p<0.001, ****p<0.0001.
Specific experimental details are included in figure legends. In general, after collection and preparation, MEFs and PNCs were dosed with vehicle or AF38469 (40 nM, 400 nM. or 4 μM) on DIV3 and DIV5. On DIV7, cells were treated with the following dyes: Hoechst 33342 (1:1000 dilution), LysoTrackerT™ Red DND-99 (1:10,000 dilution), fixed, and imaged. Mice were given vehicle or AF38469 (78.125 μg/ml, 3.125 μg/ml, 0.3125 μg/ml or 0.03125 μg/ml equating approximately to 250 μg/mouse/day, 10 μg/mouse/day, 1 μg/mouse/day, and […], respectively, given a mouse's daily water intake of approximately 3.2 ml per day) in drinking water beginning at wean. Body weight was measured bi-weekly, and a force actimeter test was performed on Cln2^R207X mice at 10 weeks of age. Body weight was measured every month for Cln3^Δex7/8 mice. At 11 and 16 weeks of age, respectively, Cln2^R207X and Cln3^Δex7/8 mice along with age matched wild type control mice were CO2 euthanized and intracardially perfused with PBS. Brains were collected and placed on a 1 mm sagittal brain block. Brains were sliced at the midline and 3 mm right of the midline. One hemisphere was fixed in 4% PFA and sectioned at 50 microns on a vibratome. Immunohistochemistry was performed on free-floating sections. For mitochondrial ATP synthase subunit C (SubC), glial fibrillary acidic protein (GFAP), and cluster of differentiation 68 (CD68) immunolabeling, primary antibodies included anti-SubC (Abcam, ab181243; 1:1000), anti-GFAP (Dako, Z0334; 1:5000), anti-CD68 (AbD Serotec, MCA1957; 1:2000), and secondary antibodies included anti-rabbit biotinylated (Vector Labs, BA-1000 1:1000) and anti-rat (Vector Labs, BA-9400 1:1000). Coverslips were mounted on slides using antifade-mounting media and were stored in the dark before imaging. Sections were imaged and analyzed using an Aperio Digital Pathology Slide Scanner (AT2) and associated software. Images were extracted from S1BF of the somatosensory cortex and the VPM/VPL of the thalamus, with multiple images taken of multiple tissues from each animal.
Short-term chronic treatment with AF38469 impacts glial activation in Cln3^Δex7/8 mice. Beginning at wean, wild type and Cln3^Δex7/8 mice were treated with vehicle (0.2408% DMSO) or AF38469 (0.03125 μg/ml, 0.3125 μg/ml, 3.125 μg/ml, 78.125 μg/ml) continuously through the drinking water continuing until sacrifice at 16 weeks. […]

Question: For CC[C@H](C)[C@H](N)C(=O)NCCN1CCOCC1 [LM11A-31, N-[2-(morpholin-4-yl)ethyl]-L-isoleucinamide], which PPT1 enzyme activity ([1]; LM11A-31 100 nM, Cln2^R207X and Cln3^Δex7/8 MEFs) is on record?
Answer: The PPT1 enzyme activity was “significantly increased”.

Question: And the “astroglial activation (GFAP)” value ([2]; LM11A-31 0.6 mg/mL, VPM/VPL of the thalamus and somatosensory cortex)?
Answer: The value was “decreasing trend; also recorded: trends towards decreased levels; also recorded: had no significant decrease”.

Question: How did the PPT1 enzyme activity ([1]; AF38469 40 nM, Cln2^R207X, Cln3^Δex7/8, Cln6^nclf, Cln11^−/− MEFs) turn out when Cc1cccc(NC(=O)c2ccc(C(F)(F)F)cc2C(=O)O)n1 [AF38469, 2-((6-methylpyridin-2-yl)carbamoyl)-5-(trifluoromethyl)benzoic acid] was run?
Answer: Its PPT1 enzyme activity is “increased the overall levels of activity; also recorded: significantly increased”.

Question: And the “astroglial activation (GFAP)” value ([2]; 0.03125 μg/ml, 0.3125 μg/ml, VPM/VPL of the thalamus)?
Answer: The value was “significantly and potently decreased”.

Question: What about the “astroglial activation (GFAP)” value ([2]; 0.03125 μg/ml, somatosensory cortex) of the same compound?
Answer: Its value is “significantly decreased”.

Question: What about the “astroglial activation (GFAP)” value ([2]; AF38469 higher doses 3.125 μg/ml, 78.125 μg/ml, VPM/VPL of the thalamus and somatosensory cortex) of the same compound?
Answer: Its value is “increased or had no impact; also recorded: had no impact”.

Question: What about the GFAP reactivity ([2]; lower doses, somatosensory cortex and the thalamus, summary statement) of the same compound?
Answer: The GFAP reactivity was “significantly decreased”.

Question: For semaglutide, which PPT1 enzyme activity ([1]; semaglutide 100 nM, Cln2^R207X and Cln3^Δex7/8 MEFs) is on record?
Answer: Its PPT1 enzyme activity is “significantly increased”.

Question: And the “astrocytosis (GFAP)” value ([2]; semaglutide 2.571 μg/mouse, 25.71 μg/mouse s.c., S1BF, CA3, VPM/VPL)?
Answer: The value was “had no significant effect”.
